What was measured:
[1] = target: A-Raf kinase (SEQ. ID No: 1) (Homo sapiens (Human), UniProt P10398, Y301D/Y302D); assay: Biochemical Assay for A-Raf (1); details: Table J, assay version (1); read-out: ARAF (1) IC50
Procedure, shortened: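 IC50 values were derived by four-parameter sigmoidal fitting of percent inhibition, calculated from reaction rates over the 4–5 h window. Absorbance at 340 nm was tracked for 6 h at 30 °C via coupled PK/LDH NADH depletion. Conditions: 1 mM ATP, 30.1 nM MEK substrate, 5.55 nM A-Raf (Y301D/Y302D), Tris pH 7.5, 1% DMSO.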

[2] = target: B-Raf kinase (SEQ. ID NO: 2) (Homo sapiens (Human), UniProt P15056); assay: Biochemical Assay for B-Raf (1); details: Table J, assay version (1); read-out: BRAF (1) IC50
Sequence of B-Raf kinase (SEQ. ID NO: 2) (P15056 416-766): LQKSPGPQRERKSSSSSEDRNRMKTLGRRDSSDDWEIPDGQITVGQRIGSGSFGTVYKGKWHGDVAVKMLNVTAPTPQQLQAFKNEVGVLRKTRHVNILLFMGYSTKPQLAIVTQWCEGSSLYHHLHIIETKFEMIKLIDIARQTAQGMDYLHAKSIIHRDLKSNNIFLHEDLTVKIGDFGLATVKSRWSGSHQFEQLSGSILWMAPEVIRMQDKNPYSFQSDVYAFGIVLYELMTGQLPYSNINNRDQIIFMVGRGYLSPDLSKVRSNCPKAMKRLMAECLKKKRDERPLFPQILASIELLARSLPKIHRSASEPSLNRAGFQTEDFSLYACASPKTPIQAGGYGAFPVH
Procedure, shortened: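 IC50 derived by four-parameter sigmoidal fit of percent inhibition, normalised to uninhibited and reference-inhibitor controls, using reaction rates over 4–5 h. Coupled spectrophotometric readout (NADH loss at 340 nm, 6 h, 30° C.); 1 mM ATP, 30.1 nM MEK, 0.13 nM B-Raf, pH 7.5 Tris buffer, 1% DMSO.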

Miapaca-2 cells = assay: MiaPaca-2 Cell Proliferation Assay (1); format: cell-based; details: Homo sapiens, MIA PaCa-2, single agent, read-out: MiaPaca2 (1) IC50
Procedure, shortened: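 Resazurin was added after compound exposure and incubated 5-6 h, then fluorescence read at 540 nm excitation and 600 nm emission to give IC50.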

WM3928 cells = assay: WM3928 Cell Proliferation Assay (1); format: cell-based
Procedure, shortened: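 IC50 was derived from resazurin fluorescence (ex 540, em 600 nm) after a 6–7 h dye incubation. Before that, cells had 67–72 h of compound exposure at 37 °C, 5% CO2.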

Sequence of A-Raf kinase (SEQ. ID No: 1) (P10398 other isoform, or with tags, fused parts or gaps Y301D (already in the parent)/Y302D (already in the parent)): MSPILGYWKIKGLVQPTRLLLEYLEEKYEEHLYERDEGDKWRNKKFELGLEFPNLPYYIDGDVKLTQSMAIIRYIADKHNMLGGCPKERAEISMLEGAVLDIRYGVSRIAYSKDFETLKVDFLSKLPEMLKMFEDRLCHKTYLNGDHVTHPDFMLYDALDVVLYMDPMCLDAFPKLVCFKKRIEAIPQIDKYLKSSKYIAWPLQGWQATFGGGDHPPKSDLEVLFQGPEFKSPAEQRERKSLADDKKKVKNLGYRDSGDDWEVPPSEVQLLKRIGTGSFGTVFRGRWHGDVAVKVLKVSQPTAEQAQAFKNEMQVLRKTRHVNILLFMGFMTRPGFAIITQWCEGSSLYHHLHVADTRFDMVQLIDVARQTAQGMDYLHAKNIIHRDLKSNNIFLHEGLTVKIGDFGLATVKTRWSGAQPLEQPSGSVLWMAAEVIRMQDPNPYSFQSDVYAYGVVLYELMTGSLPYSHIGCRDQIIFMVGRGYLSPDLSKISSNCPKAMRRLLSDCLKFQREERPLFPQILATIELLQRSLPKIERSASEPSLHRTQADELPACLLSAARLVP

SMILES	IC50 [1]	IC50 [2]	IC50 (Miapaca-2 cells)	IC50 (WM3928 cells)
CC(=O)Nc1cc(-c2cc(-c3cc(NC(=O)c4ccnc(C(F)(F)F)c4)ccc3C)cn(C)c2=O)ccn1 [Example 21, N-(3-(2′-acetamido-1-methyl-2-oxo-1,2-dihydro-[3,4′-bipyridin]-5-yl)-4-methylphenyl)-2-(trifluoromethyl)isonicotinamide]	1000 to 10000 nM	≤ 100 nM	1000 to 10000 nM	
CC(=O)Nc1cc(-c2cc(-c3cc(C(=O)Nc4ccnc(C(F)(F)F)c4)ccc3C)ccn2)ccn1 [Example 26]	1000 to 10000 nM	≤ 100 nM	1000 to 10000 nM	
CC(=O)Nc1cc(-c2cccc(-c3cc(NC(=O)c4ccnc(C(F)(F)F)c4)ccc3C)c2)ccn1 [Example 28]	500 to 1000 nM	≤ 100 nM	1000 to 10000 nM	
CNC(=O)c1cc(-c2cc(-c3cc(C(=O)Nc4ccnc(C(F)(F)F)c4)ccc3C)ccn2)ccn1 [Example 31]	1000 to 10000 nM	100 to 500 nM	1000 to 10000 nM	
Cc1ncc(NC(=O)c2cn(C(C)C)nn2)cc1-c1nccc(-c2ccnc(NC(=O)C3CC3)c2)n1 [Example 285]	1000 to 10000 nM	≤ 100 nM		1000 to 10000 nM
Cc1ncc(NC(=O)c2cnnc(C3CC3)c2)cc1-c1nccc(-c2ccnc(NC(=O)C3CC3)c2)n1 [Example 294]	1000 to 10000 nM	≤ 100 nM		
COC(=O)Nc1cc(-c2cc(-c3cc(NC(=O)c4ccnc(C(C)(C)F)c4)c(F)cc3C)ccn2)ccn1 [Example 302]	1000 to 10000 nM	≤ 100 nM		≤ 100 nM
COC(=O)Nc1cc(-c2nccc(-c3cc(NC(=O)c4ccnc(C(C)(C)C#N)c4)c(F)cc3C)n2)ccn1 [Example 303]	1000 to 10000 nM	≤ 100 nM		≤ 100 nM
COC(=O)Nc1cc(-c2cnnc(-c3cc(NC(=O)c4ccnc(C(C)(C)C#N)c4)cnc3C)c2)ccn1 [Example 306]	1000 to 10000 nM	100 to 500 nM	1000 to 10000 nM	
CNC(=O)c1cc(-c2cnnc(-c3cc(NC(=O)c4ccnc(C(C)(C)F)c4)cnc3C)c2)ccn1 [Example 309]	1000 to 10000 nM	1000 to 10000 nM	1000 to 10000 nM	
Cc1ncc(NC(=O)c2ccnc(C(C)(C)F)c2)cc1-c1cc(-c2ccnc(NC(=O)C3CC3)c2)cnn1 [Example 310]	1000 to 10000 nM	≤ 100 nM	1000 to 10000 nM	
COC(=O)Nc1cc(-c2cnnc(-c3cc(NC(=O)c4cccc(C(C)(C)C#N)c4)ccc3C)c2)ccn1 [Example 311]	1000 to 10000 nM	≤ 100 nM		
COC(=O)Nc1cc(-c2cc(-c3cc(NC(=O)c4ccnc(C(F)F)c4)cnc3C)ccn2)ccn1 [Example 313]	1000 to 10000 nM	≤ 100 nM		1000 to 10000 nM
CNC(=O)c1cc(-c2cnnc(-c3cc(NC(=O)c4ccnc(C(C)(C)C#N)c4)ccc3C)c2)ccn1 [Example 314]	1000 to 10000 nM	100 to 500 nM		500 to 1000 nM
Cc1ccc(NC(=O)c2ccnc(C(C)(C)F)c2)cc1-c1cc(-c2ccnc(NC(=O)C3CC3)c2)cnn1 [Example 315]	500 to 1000 nM	≤ 100 nM		≤ 100 nM
CNC(=O)c1cc(-c2cnnc(-c3cc(NC(=O)c4ccnc(C(C)(C)C#N)c4)cnc3C)c2)ccn1 [Example 316]	1000 to 10000 nM	500 to 1000 nM		
CNC(=O)c1cc(-c2cnnc(-c3cc(NC(=O)c4ccnc(C5CC5)c4)cnc3C)c2)ccn1 [Example 317]	1000 to 10000 nM	500 to 1000 nM		
CNC(=O)c1cc(-c2cnnc(-c3cc(NC(=O)c4ccnc(C(F)(F)F)c4)cnc3C)c2)ccn1 [Example 318]	1000 to 10000 nM	500 to 1000 nM		
COC(C)(C)c1cc(C(=O)Nc2ccc(C)c(-c3cc(-c4ccnc(NC(=O)C5CC5)c4)cnn3)c2)ccn1 [Example 319]	1000 to 10000 nM	≤ 100 nM		
Cc1ccc(NC(=O)c2cn(C(C)C)nn2)cc1-c1cc(-c2ccnc(NC(=O)C3CC3)c2)cnn1 [Example 320]	1000 to 10000 nM	≤ 100 nM		1000 to 10000 nM
Cc1ccc(NC(=O)c2cnn(C(C)(C)C)c2)cc1-c1cc(-c2ccnc(NC(=O)C3CC3)c2)cnn1 [Example 321]	1000 to 10000 nM	≤ 100 nM		100 to 500 nM
CNC(=O)c1cc(-c2cnnc(-c3cc(NC(=O)c4ccc(Cl)c(OC)c4)cnc3C)c2)ccn1 [Example 322]	1000 to 10000 nM	1000 to 10000 nM		
COC(=O)Nc1cc(-c2cc(-c3cc(NC(=O)c4ccnc(C(C)(C)F)c4)cnc3C)ccn2)ccn1 [Example 323]	1000 to 10000 nM	≤ 100 nM		100 to 500 nM
CNC(=O)c1cc(-c2cnnc(-c3cc(NC(=O)c4ccnc(C(C)(C)F)c4)ccc3C)c2)ccn1 [Example 325]	1000 to 10000 nM	100 to 500 nM		500 to 1000 nM
CNC(=O)c1cc(-c2cnnc(-c3cc(NC(=O)c4ccnc(C5CC5)c4)ccc3C)c2)ccn1 [Example 326]	1000 to 10000 nM	100 to 500 nM		1000 to 10000 nM

SMILES	IC50 [1]	IC50 [2]	IC50 (Miapaca-2 cells)	IC50 (WM3928 cells)
CNC(=O)c1cc(-c2cnnc(-c3cc(NC(=O)c4ccnc(C(F)F)c4)ccc3C)c2)ccn1 [Example 327]	1000 to 10000 nM	100 to 500 nM		1000 to 10000 nM
CNC(=O)c1cc(-c2cnnc(-c3cc(NC(=O)c4ccnc(C(C)(C)OC)c4)ccc3C)c2)ccn1 [Example 328]	1000 to 10000 nM	500 to 1000 nM		1000 to 10000 nM
CNC(=O)c1cc(-c2cnnc(-c3cc(NC(=O)c4ccc(F)c(C(F)(F)F)c4)ccc3C)c2)ccn1 [Example 329]	1000 to 10000 nM	500 to 1000 nM		1000 to 10000 nM
CNC(=O)c1cc(-c2cnnc(-c3cc(NC(=O)c4ccnc(C(F)F)c4)cnc3C)c2)ccn1 [Example 330]	1000 to 10000 nM	500 to 1000 nM		
Cc1ccc(NC(=O)c2ccnc(C3CC3)c2)cc1-c1cc(-c2ccnc(NC(=O)C3CC3)c2)cnn1 [Example 331]	1000 to 10000 nM	≤ 100 nM		500 to 1000 nM
Cc1ccc(NC(=O)c2ccnc(S(C)(=O)=O)c2)cc1-c1cc(-c2ccnc(NC(=O)C3CC3)c2)cnn1 [Example 332]	1000 to 10000 nM	≤ 100 nM		1000 to 10000 nM
CNC(=O)c1cc(-c2cnnc(-c3cc(NC(=O)CCC(C)(C)C#N)cnc3C)c2)ccn1 [Example 333]	1000 to 10000 nM	1000 to 10000 nM		
CO[C@H]1CC[C@H](C(=O)Nc2ccc(C)c(-c3ccnc(-c4ccnc(NC(=O)C5CC5)c4)n3)c2)CC1 [Example 341]	1000 to 10000 nM	100 to 500 nM		1000 to 10000 nM
Cc1ccc(NC(=O)C2CN(C)CCO2)cc1-c1cccc(-c2cc(NC(=O)C3CC3)ncn2)c1 (centres unmarked) [Example 346]	1000 to 10000 nM	≤ 100 nM		
CO[C@H]1CC[C@H](C(=O)Nc2cnc(C)c(-c3cccc(-c4cc(NC(=O)C5CC5)ncn4)c3)c2)CC1 [Example 347]	1000 to 10000 nM	500 to 1000 nM		
CNC(=O)c1cc(-c2cc(-c3cc(NC(=O)CCC(C)(C)C#N)ccc3C)ccn2)ccn1 [Example 357]	1000 to 10000 nM	100 to 500 nM		
CNC(=O)c1cc(-c2cc(-c3cc(NC(=O)COCC4CC4)ccc3C)ccn2)ccn1 [Example 358]	1000 to 10000 nM	≤ 100 nM		1000 to 10000 nM
COC(=O)Nc1cc(-c2cnnc(-c3cc(NC(=O)CN4CCCC4)cnc3C)c2)ccn1 [Example 359]	1000 to 10000 nM	1000 to 10000 nM		
COC(=O)Nc1cc(-c2cnnc(-c3cc(NC(=O)COCC4CC4)ccc3C)c2)ccn1 [Example 360]	1000 to 10000 nM	500 to 1000 nM		1000 to 10000 nM
COC(=O)Nc1cc(-c2cnnc(-c3cc(NC(=O)c4ccnc(C(C)(C)F)c4)cnc3C)c2)ccn1 [Example 361]	1000 to 10000 nM	100 to 500 nM		
COC(=O)Nc1cc(-c2cnnc(-c3cc(NC(=O)c4ccnc(C5CC5)c4)cnc3C)c2)ccn1 [Example 362]	1000 to 10000 nM	100 to 500 nM		
COC(=O)Nc1cc(-c2cnnc(-c3cc(NC(=O)c4ccnc(C(F)F)c4)cnc3C)c2)ccn1 [Example 363]	1000 to 10000 nM	500 to 1000 nM		
CNC(=O)c1cc(-c2cnnc(-c3cc(NC(=O)c4ccnc(C(F)(F)F)c4)ccc3C)c2)ccn1 [Example 364]	1000 to 10000 nM	100 to 500 nM		1000 to 10000 nM
COCCNC(=O)c1cc(-c2cnnc(-c3cc(NC(=O)c4cccc(C5CC5)c4)ccc3C)c2)ccn1 [Example 365]	1000 to 10000 nM	100 to 500 nM		
CNC(=O)c1cc(-c2cnnc(-c3cc(NC(=O)c4cn(C(C)(C)C)nn4)ccc3C)c2)ccn1 [Example 366]	1000 to 10000 nM	100 to 500 nM		
Cc1ccc(NC(=O)c2cc(C(C)(C)C)no2)cc1-c1cc(-c2ccnc(NC(=O)C3CC3)c2)cnn1 [Example 367]	1000 to 10000 nM	≤ 100 nM		
COC(=O)Nc1cc(-c2cnnc(-c3cc(NC(=O)CC4CCCC4)cnc3C)c2)ccn1 [Example 368]	1000 to 10000 nM	1000 to 10000 nM		
Cc1ccc(NC(=O)c2ccnc(C(C)(C)C#N)c2)cc1-c1cc(-c2ccnc3[nH]ccc23)cnn1 [Example 369]	1000 to 10000 nM	≤ 100 nM		
Cc1ccc(NC(=O)c2ccnc(C(C)(C)C#N)c2)cc1-c1cc(-c2ccnc(C(=O)NC3CC3)c2)cnn1 [Example 372]	1000 to 10000 nM	1000 to 10000 nM		
